# Measurements: patent US7794994B2 (Kemeta, LLC, priority 2001, dated 2010)
# Tests used:
# S-ADH from C. boidinii = test: S-ADH spectrophotometric assay, C. boidinii S-ADH; assay type: biochemical, Candida boidinii; conditions: pH 7.6, 5 mM substrate; for Relative S-ADH Activity (%) C. boidinii, alcohol oxidation: alcohol oxidation rates, 0.2 mM NAD+, 2-propanol = 100
# Description: Assays were performed in 2 mL quartz cuvettes and contained NAD(H) (0.2 mM), potassium phosphate buffer (25 mM), and a source of enzyme (cell-free extracts, column fractions, or purified enzyme) in a total reaction volume of 1 mL at pH 6.2 ([…]) at 30° C. Assays were pre-incubated for 1.5 min. at 30° C. with all assay components except substrate. […]
# [1] = system: S-ADH from X. autotrophicus strain Py2; test: Secondary alcohol dehydrogenase NADH oxidation spectrophotometric assay; assay type: biochemical, Xanthobacter autotrophicus strain Py2; conditions: for specific activity, alcohol oxidation: at pH 7.8
# Description: (§1) Assays were performed in 2 mL quartz cuvettes and contained NAD(H) (0.2 mM), potassium phosphate buffer (25 mM), and a source of enzyme (cell-free extracts, column fractions, or purified enzyme) in a total reaction volume of 1 mL at pH 6.2 ([…]) at 30° C. Assays were pre-incubated for 1.5 min. at 30° C. with all assay components except substrate. Assays were initiated by addition of substrate (2.5 mM) and monitored over time by measuring the change in absorbance at 340 nm (∈340 of 6.22 mM^−1·cm^−1 for NADH).
# Data analysis. Kinetic constants (Km and Vmax) were calculated by fitting initial rate data to the Michaelis-Menten equation and using the software KaleidaGraph Fourth Edition, (Synergy Software, Reading, Pa.).
# S-ADH from strain IP-1 = test: S-ADH spectrophotometric assay, partially purified S-ADH of isolate IP-1; assay type: biochemical, isopropanol-grown bacterial strain TDCC IP-1
# Description: Protein purifications. […] Secondary alcohol dehydrogenase (S-ADH) from X. autotrophicus Py2 was purified via the following protocol. Cell-free extracts (380 mL) of isopropanol-grown X. autotrophicus Py2 (150 g) were prepared as described above, and applied to a 5×15 cm column of DEAE-Sepharose FAST FLOW (Diethylaminoethyl cross-linked agarose bead material; Catalog number 17-0709-10, Amersham Pharmacia Biotech, Piscataway, N.J.)) equilibrated in buffer A (25 mM MOPS (3-(N-morpholino)propanesulfonic acid), pH 7.6, 5% glycerol, 1 mM dithiothreitol) at a flow rate of 10 mL/min. After loading, the column was washed with […] buffer A and developed with a 2400 mL linear gradient of 90-290 mM KCl in buffer A. Fractions containing S-ADH activity were pooled and dialyzed against 2 L of 25 mM potassium phosphate (pH 6.2) containing 5% glycerol (buffer B) for 16 h at 4° C. […] After washing the column with 30 mL of buffer B, S-ADH was eluted with 20 mL of buffer A containing 10 mM NAD^+. Fractions containing S-ADH were then dialyzed against 2 L of buffer A for 16 h at 4° C., concentrated by ultrafiltration (using a YM30 ultrafiltration membrane; catalog no. 13722, from Millipore, Bedford, Mass.), and frozen in liquid nitrogen. Partially purified S-ADH from bacterial screen cultures was prepared as follows: cell-free extracts from 1 to 5 g of cell paste were prepared as described above and applied to a 5 mL HI TRAP Q column (quaternary, tetraethylammonium, cross-linked agarose bead material for use as an anion exchange matrix; catalog number 17-1153-01, Amersham Pharmacia Biotech) equilibrated in 100 mM MOPS, pH 7.6, containing 5% (v/v) glycerol (buffer C). The column was washed with 10 mL buffer C and developed with a 100 mL linear gradient of 0 to 100 mM NaCl in buffer C. Fractions containing S-ADH activity were pooled, concentrated to 0.5 mL using a 30 kDa MWCO (“molecular weight cut-off”) centrifugal membrane (catalog number UFV4BTK25, Millipore), and stored at −80° C.
# as §1
# [2] = target: T1, acetone carboxylase coupled to β-hydroxybutyrate dehydrogenase (Xanthobacter versatilis, UniProt Q8RM03+Q8RM04); test: Acetone carboxylase coupled to NADH oxidation spectrophotometric assay; assay type: biochemical, X. autotrophicus strain Py2; conditions: alternative compounds in coupled enzyme system
# T1 construct: host or cells: X. autotrophicus strain Py2 (native organism; enzyme obtained from Prof; S. A. Ensign / purified as previously published)
# T1 sequence (Q8RM03 1-776): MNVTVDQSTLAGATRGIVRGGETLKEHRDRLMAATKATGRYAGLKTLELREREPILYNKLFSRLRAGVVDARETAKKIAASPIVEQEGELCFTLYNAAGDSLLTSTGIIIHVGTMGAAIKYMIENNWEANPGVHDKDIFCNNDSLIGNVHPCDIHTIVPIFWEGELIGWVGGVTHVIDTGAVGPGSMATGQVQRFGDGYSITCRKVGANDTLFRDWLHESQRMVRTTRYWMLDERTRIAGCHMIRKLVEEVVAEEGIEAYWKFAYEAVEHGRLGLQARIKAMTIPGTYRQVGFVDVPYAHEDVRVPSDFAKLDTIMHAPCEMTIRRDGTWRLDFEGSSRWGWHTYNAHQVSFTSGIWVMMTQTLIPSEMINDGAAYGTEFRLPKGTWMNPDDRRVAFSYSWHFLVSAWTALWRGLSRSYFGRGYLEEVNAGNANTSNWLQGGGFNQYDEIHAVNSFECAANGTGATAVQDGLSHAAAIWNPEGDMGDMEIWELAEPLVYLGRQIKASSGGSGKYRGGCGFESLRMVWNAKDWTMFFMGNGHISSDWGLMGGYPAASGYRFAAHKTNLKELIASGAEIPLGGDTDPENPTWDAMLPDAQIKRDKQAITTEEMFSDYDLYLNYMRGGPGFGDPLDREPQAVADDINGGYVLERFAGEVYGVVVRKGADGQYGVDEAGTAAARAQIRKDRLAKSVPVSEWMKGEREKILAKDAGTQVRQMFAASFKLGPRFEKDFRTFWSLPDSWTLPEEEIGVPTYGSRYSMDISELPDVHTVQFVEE
# T1 sequence (Q8RM04 1-717): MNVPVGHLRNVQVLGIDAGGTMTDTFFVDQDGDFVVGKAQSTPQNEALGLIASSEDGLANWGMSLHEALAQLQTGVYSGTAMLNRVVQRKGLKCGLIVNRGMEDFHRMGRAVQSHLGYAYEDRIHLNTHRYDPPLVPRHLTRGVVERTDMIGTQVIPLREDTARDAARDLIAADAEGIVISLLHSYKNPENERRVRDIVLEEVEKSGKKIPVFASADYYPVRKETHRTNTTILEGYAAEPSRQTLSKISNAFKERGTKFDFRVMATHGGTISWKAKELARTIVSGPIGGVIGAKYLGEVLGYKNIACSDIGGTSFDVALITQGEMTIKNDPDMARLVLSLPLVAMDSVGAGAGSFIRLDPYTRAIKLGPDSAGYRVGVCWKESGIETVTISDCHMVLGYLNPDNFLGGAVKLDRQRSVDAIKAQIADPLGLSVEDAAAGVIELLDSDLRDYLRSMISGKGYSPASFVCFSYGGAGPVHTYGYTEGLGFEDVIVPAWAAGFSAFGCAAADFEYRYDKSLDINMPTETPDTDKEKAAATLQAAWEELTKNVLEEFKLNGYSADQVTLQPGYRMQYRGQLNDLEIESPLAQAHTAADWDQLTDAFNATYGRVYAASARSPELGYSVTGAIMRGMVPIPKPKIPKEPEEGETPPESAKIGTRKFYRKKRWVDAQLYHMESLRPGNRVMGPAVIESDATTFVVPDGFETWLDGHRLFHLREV
# T1 sequence (Q8RM02 2-168 partner limits assumed): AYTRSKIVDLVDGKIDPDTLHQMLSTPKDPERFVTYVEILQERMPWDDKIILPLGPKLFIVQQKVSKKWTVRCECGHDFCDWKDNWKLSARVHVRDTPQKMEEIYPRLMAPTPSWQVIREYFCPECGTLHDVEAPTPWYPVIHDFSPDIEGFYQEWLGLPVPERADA
# Description: Assays were performed in 2 mL (1 cm path length) quartz cuvettes that had been modified by fusing a serum bottle-style quartz top (7×13 mm at mouth), allowing the cuvettes to be sealed with a red rubber serum stopper. […] The addition of […] (3 U) and NADH (0.2 mM) allowed acetoacetate formation to be coupled to the oxidation of NADH. […] The reaction was monitored by measuring the decrease in absorbance at 340 nm (∈340 of 6.22 mM^−·cm^−1 for NADH) over time in an Agilent Technologies (Palo Alto, Calif.) model 8453 UV-Visible Spectroscopy System containing a thermostat-controlled cell holder at 30° C.
# [3] = system: S-ADH from M. vaccae JOB-5; test: S-ADH spectrophotometric assay, propane-grown M. vaccae JOB-5; assay type: biochemical, Mycobacterium vaccae strain JOB-5
# Description: as §1
# S-ADH from T. brockii = target: T2, S-ADH from T. brockii (Thermoanaerobacter brockii, UniProt P14941); test: S-ADH spectrophotometric assay, T. brockii S-ADH; assay type: biochemical, Thermoanaerobium brockii; conditions: ketone reduction rates, pH 6.2, 2.5 mM substrate, 0.2 mM NADPH; acetone = 100
# T2 sequence (P14941 1-352): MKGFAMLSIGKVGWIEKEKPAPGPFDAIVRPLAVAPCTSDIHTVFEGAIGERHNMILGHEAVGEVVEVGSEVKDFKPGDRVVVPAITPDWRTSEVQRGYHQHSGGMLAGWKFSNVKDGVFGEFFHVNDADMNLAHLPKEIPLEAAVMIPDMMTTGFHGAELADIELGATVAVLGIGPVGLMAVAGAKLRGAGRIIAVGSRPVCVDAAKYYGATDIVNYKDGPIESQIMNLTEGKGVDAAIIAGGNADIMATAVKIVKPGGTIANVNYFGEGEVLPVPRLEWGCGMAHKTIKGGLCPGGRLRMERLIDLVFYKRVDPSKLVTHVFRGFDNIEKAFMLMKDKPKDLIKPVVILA
# Description: […] Assays were pre-incubated for 1.5 min. at 30° C. with all assay components except substrate. Assays were initiated by addition of substrate (2.5 mM) and monitored over time by measuring the change in absorbance at 340 nm (∈340 of 6.22 mM^−1·cm^−1 for NADH).
# [4] = alcohol oxidation rates, pH 7.6, 2.5 mM substrate, 0.2 mM NAD+, 2-propanol = 100, NA = no activity detected
# [5] = ketone reduction rates, pH 6.2, 2.5 mM substrate, 0.2 mM NADH, acetone = 100
compound,measurement,setting,value
CCCCCO [1-Pentanol],"Relative S-ADH Activity (%) C. boidinii, alcohol oxidation",S-ADH from C. boidinii,8%
same,"specific activity, alcohol oxidation",[1],No activity
CCCCO [1-Butanol],"Relative S-ADH Activity (%) C. boidinii, alcohol oxidation",S-ADH from C. boidinii,6%
same,"Relative S-ADH Activity (%) IP-1, alcohol oxidation",S-ADH from strain IP-1; [4],2%
same,activity as substrate and inhibition of acetone carboxylation activity,[2],not active nor did they inhibit acetone carboxylation activity
same,"Relative S-ADH Activity (%) JOB 5, alcohol oxidation",[3]; [4],10%
same,"Relative S-ADH Activity (%) X. Py2, alcohol oxidation",[1]; [4],7%
same,"specific activity, alcohol oxidation",[1],1.7±0.2 μmol alcohol oxidized min^−1mg^−1 protein
CCCC(C)=O [2-Pentanone],"Relative S-ADH Activity (%) C. boidinii, ketone reduction","S-ADH from C. boidinii; ketone reduction rates, 0.2 mM NADH, acetone = 100",16%
same,"Relative S-ADH Activity (%) T. brockii, ketone reduction",S-ADH from T. brockii,59%
same,"Relative S-ADH Activity (%) IP-1, ketone reduction",S-ADH from strain IP-1; [5],44%
same,"Relative S-ADH Activity (%) JOB 5, ketone reduction",[3]; [5],185%
same,"Relative S-ADH Activity (%) X. Py2, ketone reduction",[1]; [5],198%
"NC(=O)C1=CN([C@@H]2O[C@H](COP(=O)(O)OP(=O)(O)OC[C@H]3O[C@@H](n4cnc5c(N)ncnc54)[C@H](OP(=O)(O)O)[C@@H]3O)[C@@H](O)[C@H]2O)C=CC1 [NADPH, nicotinamide adenine dinucleotide phosphate, reduced form]",ability to serve as electron donor in acetone reduction assays,[1]; data not shown,not
CO [methanol],inhibition of S-ADH activity,"[1]; saturating acetone, alcohol at about 13-fold over the Km value for acetone, data not shown",no inhibition was observed
